Laboratory results: patent publication US11521704B2, “Method for probing at least one binding site of a protein” (priority 2017, dated 2022)
Read-outs that look alike come from different tables or passages of the source.

Tests used:
[1] = system: clinically-derived HIV-1 protease variant SLK19; assay: Cell-based assay (Swanstrom laboratory); conditions: Human immunodeficiency virus 1
[2] = system: NL4-3 wild-type HIV-1 protease; assay: Cell-based assay (Swanstrom laboratory); conditions: Human immunodeficiency virus 1, NL43
Source text: (§1) A diverse panel of 15 HIV-1 protease variants was chosen with a broad range of sequence substitutions containing single site mutants and more heavily mutated multi-drug resistant proteases (MDR-PRs). Both the SF-2 and NL4-3 wild-type (WT) proteases were used as controls for the variants in the panel. These two WT proteins shared 95% identity, varying at positions 7, 14, 41, 63 and 64 (FIG. 2). […] Table 1 is a listing of EC50 values for clinically-derived HIV-1 protease variants determined by cell-based assays at the Swanstrom laboratory at UNC-Chapel Hill, and fold changes relative to wild type NL4-3. The EC50 value for variant ATA21 could not be determined.

[3] = system: clinically-derived HIV-1 protease variant KY26; assay: Cell-based assay (Swanstrom laboratory); conditions: Human immunodeficiency virus 1
[4] = system: SF-2 wild-type HIV-1 protease; assay: Cell-based replicon assay; conditions: Human immunodeficiency virus 1, cell-based replicon assays
Source text: as §1

[5] = system: clinically-derived HIV-1 protease variant VEG23; assay: Cell-based assay (Swanstrom laboratory); conditions: Human immunodeficiency virus 1
[6] = system: clinically-derived HIV-1 protease variant VSL23; assay: Cell-based assay (Swanstrom laboratory); conditions: Human immunodeficiency virus 1

Structure (SMILES): CC(C)CN(C[C@@H](O)[C@H](Cc1ccccc1)NC(=O)O[C@H]1CO[C@H]2OCC[C@H]21)S(=O)(=O)c1ccc(N)cc1 [DRV, Darunavir]
- EC50 [1]: 32.5 nM
- EC50 ([2]; NL4-3, cell-based replicon assays, read-out: EC50): 4 nM
- EC50 ([2]; NL4-3 wild type, read-out: EC50 In): 3.98 nM
- EC50 [3]: 1160 nM
- EC50 [4]: 4 nM
- EC50 [5]: 7800 nM
- EC50 [6]: 320 nM
